Measurements as given in patent US20100267720A1, “Crystalline Forms of 2-Hydroxy-3- [5- (Morpholin- 4- Ylmethyl) Pyridin-2-YL] IH- Indole- 5 -Carbonitrile Citrate” (ASTRAZENECA AB, priority 2007, published 2010).

What was measured:
[1] = Chemical stability of the salt forms; format: physicochemical; details: compared with the hydrochloride salt of WO 03/082853
From the text: The term “chemical stability” means that the compound can be stored in an isolated form, or in the form of a formulation in which it is provided in admixture with pharmaceutically acceptable carriers, diluents or adjuvants (e.g., in an oral dosage form, such as tablet, capsule, etc.), under normal storage conditions, with little or no chemical degradation or decomposition.

[2] = Hygroscopicity by Dynamic Vapour Sorption Analysis (DVS); format: physicochemical; details: for moisture uptake: 25° C.
Method: The studies were undertaken using Dynamic Vapour Sorption Apparatus (DVS, Surface Measurement Systems, London UK). The apparatus consists of Cahn micobalance housed inside a temperature-controlled cabinet. All experiments were performed at 25° C. The DVS was used to characterize the moisture uptake (w/w %) at different relative humidities (RH). Samples (5-10 mg) were weighed directly into the DSV sample cup and exposed to different relative humidities.

[3] = 40% relative humidity (RH), citrate
[4] = 60% relative humidity (RH), citrate
[5] = 80% relative humidity (RH), citrate

moisture uptake [2, 3]	moisture uptake [2, 4]	moisture uptake [2, 5]	hygroscopicity (in words) ([2]; citrate)	SMILES	chemical stability (in words) [1]	hygroscopicity (in words) ([2]; listed as citrate salt of 2-hydroxy-3-[5-(morpholin-4-ylmethyl)pyridin-2-yl]1H-indole-5-ca)
–	–	–	–	N#Cc1ccc2[nH]c(O)c(-c3ccc(CN4CCOCC4)cn3)c2c1.O=C(O)CC(O)(CC(=O)O)C(=O)O [2-hydroxy-3-[5-(morpholin-4-ylmethyl)pyridin-2-yl]1H-indole-5-carbonitrile citrate]	improved chemical stability over the hydrochloride salt	lower hygroscopicity than the hydrochloride salt
3.2 w/w %	3.6 w/w %	3.7 w/w %	–	N#Cc1ccc2[nH]c(O)c(-c3ccc(CN4CCOCC4)cn3)c2c1.O=C(O)CC(O)(CC(=O)O)C(=O)O [Citrate Form D, 2-Hydroxy-3-[5-(morpholin-4-ylmethyl)pyridin-2-yl]1H-indole-5-carbonitrile citrate]	–	–
0.45 w/w %	0.52 w/w %	0.60 w/w %	very low hygroscopicity	N#Cc1ccc2[nH]c(O)c(-c3ccc(CN4CCOCC4)cn3)c2c1.O=C(O)CC(O)(CC(=O)O)C(=O)O [Citrate Form E, 2-Hydroxy-3-[5-(morpholin-4-ylmethyl)pyridin-2-yl]1H-indole-5-carbonitrile citrate]	–	–
